The text below walks through data of patent US8796279B2, “4′-demethylepipodophyllotoxin derivative, preparation method and use thereof” (Hubei University of Technology, priority 2010, dated 2014).

Where two headings read alike, the source gives them in different places. Some results are limits rather than exact numbers.

What is called logP is the decadic logarithm of the partition coefficient of the neutral form, usually between octanol and water. The low end stands for lower lipophilicity, the high end for higher lipophilicity.

Data set [1] can be described thus: HK-2 normal cell growth inhibition (cell toxicity), MTT method. The note with it: human, HK-2 cells (proximal tubule); HK-2 normal cells, MTT, 48 h; read-out: half growth inhibition concentration (IC50), cell toxicity. The data set is classed as cell-based, human. A general note: Tetrazolium assays rely on reduction of a dye to a coloured formazan, in cell work by metabolically active cells.

Data set [2] has as its system human proximal tubule cell strain HK-2. The data set is described as above. The note with it: HK-2 normal cells, from IC50 values. The data set is classed as cell-based.
Data set [3] deals with human pulmonary cancer cell strain A549. Put plainly: A549 tumor cell growth inhibition, MTT method. The conditions noted are these: read-out: half growth inhibition concentration (IC50).
Another data set concerns HepG2 tumor cell strain. The data set is described as follows: HepG2 tumor cell growth inhibition, MTT method. The conditions noted are these: for IC50: Homo sapiens, HepG2, 48 h, read-out: half growth inhibition concentration (IC50).
In data set [4] the test system is human gastric cancer cell strain BGC-823. The data set is described as follows: BGC-823 tumor cell growth inhibition, MTT method. The format is cell-based. The note with it: read-out: half growth inhibition concentration (IC50).
Data set [5] can be described thus: Lipid-water partition coefficient test (n-octanol / biological brine, UV). On the procedure:
I mg of each of 4-(2,3,5,6-tetramethylpyrazin-1-yl)-4′-demethylepipodophyllotoxin, 4′-demethylepipodophyllotoxin and podophyllotoxin was respectively dissolved into 3 centrifuge tubes of 10 mL each containing 2 mL n-octanol and 2 mL biological brine, the tubes were capped tight, shook thoroughly for 10 min, and subsequently let stand for 20 min. 0.2 mL of the organic- and water phase were respectively pipetted into clean test tubes. Absorbance (A) values of the organic- and water phase were measured using UV method, respectively, using A to calculate the weights of the drugs dissolved in the organic- and water layer, Walcohol and Wwater, respectively. The operations were repeated 3 times, averages were calculated, lipid-water partition coefficients were calculated using Eq. 1:
[formula] where Walcohol and Wwater denote the measured weights of drugs in n-octanol- and water phase, respectively; Valcohol and Vwater denote volumes of n-octanol- and water phase, respectively. 3. Results

The mark [6] stands for this setting: Homo sapiens, BGC-823 cells, MTT, 48 h.

Consider `COc1cc([C@@H]2c3cc4c(cc3[C@@H]([n+]3c(C)c(C)nc(C)c3C)[C@H]3COC(=O)[C@H]23)OCO4)cc(OC)c1O` [4-(2,3,5,6-tetramethylpyrazin-1-yl)-4′-demethylepipodophyllotoxin], for which the IC50 at 48 h in data set [1] is 240 nM. Besides, in data set [2], the “cell toxicity decreased in comparison with podophyllotoxin” value is listed as roughly 66 times. Besides, the IC50 was found to be 230 nM in data set [3] (Homo sapiens, A549, 48 h); 290 nM in the data set on HepG2 tumor cell strain; 60 nM in data set [4] (setting [6]). Moreover, in the data set with HepG2 tumor cell strain (HepG2 cells, from IC50 values), the “inhibition activity raised in comparison with etoposide” value turned out to be 2.7 times. In data set [5], this compound showed a logP of 0.66. For the same compound, the “lipid water partition coefficient increased than 4′-demethylepipodophyllotoxin” value in data set [5] (from logP values) is listed as 16%. Moreover, the “lipid water partition coefficient increased than podophyllotoxin” value in data set [5] (from logP values) is recorded as 94%.
Turning to `COc1cc([C@@H]2c3cc4c(cc3[C@@H](O)[C@H]3COC(=O)[C@H]23)OCO4)cc(OC)c1O` [4′-demethylepipodophyllotoxin], the IC50 in data set [3] (A549 cells, MTT, 48 h) was found to be 450 nM; in data set [4] (BGC-823 cells, MTT, 48 h) it was 398000 nM.
On to `COc1cc([C@@H]2c3cc4c(cc3[C@H](O)[C@H]3COC(=O)[C@H]23)OCO4)cc(OC)c1OC` [podophyllotoxin], for which, in data set [1], the IC50 at 48 h was 3.5 nM. In data set [4] (Homo sapiens, BGC-823, 48 h), the IC50 came to 529000 nM. In addition, the logP in data set [5] came out at 0.34.
Consider `Cc1nc(C)c(C)nc1C` [tetramethylpyrazine], for which, in data set [5], the “lipid-water partition coefficient (logP)” value is given as greater than 5 and the logP was greater than 5.
Take `COc1cc([C@@H]2c3cc4c(cc3[C@@H](O[C@@H]3O[C@@H]5CO[C@@H](C)O[C@H]5[C@H](O)[C@H]3O)[C@H]3COC(=O)[C@H]23)OCO4)cc(OC)c1O` [etoposide]: the IC50 in data set [3] (Homo sapiens, A549, 48 h) is 165000 nM; with HepG2 tumor cell strain, 1060 nM; in data set [4] (setting [6]), 14000 nM.
